Laboratory results published in article PMC9227586, “UHPLC-MS Metabolomic Fingerprinting, Antioxidant, and Enzyme Inhibition Activities of Himantormia lugubris from Antarctica” (Metabolites, 2022).
Read-outs that look alike come from different tables or passages of the source. Marks after values point to notes of the source that are not given here.

How the values were obtained:
DPPH scavenging activity = conditions: bleaching of DPPH at 515 nm after 30 min
Method: The potential bleaching of the radical DPPH, using a Synergy HTX microplate reader, was determined by mixing 50 µL of extract or standard with 150 µL of DPPH solution; the determinations were made in triplicate by monitoring the bleaching of DPPH at 515 nm after 30 min of reaction. The results are expressed as IC50 in µg of standard or extract per mL. The data are reported as the mean ± SD.

[1] = Oxygen radical absorbance capacity (ORAC) assay
Method: The ORAC assay was performed as previously described. Quantification was performed using a standard curve of the antioxidant Trolox, then the measurement was performed using a solution of the Trolox, blank, and 40 µL of extract in different wells of the microplate reader. The results were obtained by constructing the equations (Trolox/samples vs. fluorescence decay curves) and expressed in μmol Trolox equivalents per grams of dry lichen. The tests were performed in triplicate and the results are reported as the mean ± SD.

[2] = target: T1, butyrylcholinesterase (BChE, EC 3.1.1.8) (Homo sapiens, UniProt P06276); experiment: biochemical
T1 construct: purchased Sigma (St. Louis, MO, USA)
T1 sequence (P06276 29-602): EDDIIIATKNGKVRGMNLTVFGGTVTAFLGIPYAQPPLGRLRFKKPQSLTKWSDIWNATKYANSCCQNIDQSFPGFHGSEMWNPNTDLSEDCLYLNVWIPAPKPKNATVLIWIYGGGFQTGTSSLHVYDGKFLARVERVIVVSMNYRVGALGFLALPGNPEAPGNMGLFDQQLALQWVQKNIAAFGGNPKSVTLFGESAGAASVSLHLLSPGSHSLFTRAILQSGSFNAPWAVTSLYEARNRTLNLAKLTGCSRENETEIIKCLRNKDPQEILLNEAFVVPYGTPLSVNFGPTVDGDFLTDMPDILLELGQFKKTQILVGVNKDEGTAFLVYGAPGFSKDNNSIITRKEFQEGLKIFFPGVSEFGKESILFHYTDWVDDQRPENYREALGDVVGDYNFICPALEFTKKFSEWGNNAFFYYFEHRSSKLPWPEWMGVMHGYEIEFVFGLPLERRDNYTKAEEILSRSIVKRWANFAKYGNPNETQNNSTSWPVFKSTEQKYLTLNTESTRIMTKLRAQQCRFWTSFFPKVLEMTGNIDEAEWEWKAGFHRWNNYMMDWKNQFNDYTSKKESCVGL
Method: (§1) Inhibition of AChE activity was determined according to the Ellman method, as previously reported. The samples (2 mg/mL) were prepared by mixing tris-HCl buffer (50 mM, pH 8.0), enzyme solution (AChE or BChE), and 5-dithio-bis (2-nitrobenzoic acid) (DTNB) at pH 8.0. The reaction was started by adding acetyl-thiocholine iodide (ATCI) or butyryl-thiocholine chloride (BTCl). The absorbance of the extract was measured at 405 nm for 30 min at 37 °C. Three experiments were performed in triplicate in each test and the values are reported as the mean ± SD. The results were expressed as IC50 (µg/mL, the final concentration of the plate ranged from 0.05 to 25 μg/mL).

[3] = target: T2, acetylcholinesterase (AChE, EC 3.1.1.7) (Homo sapiens, UniProt P22303); experiment: biochemical; conditions: 37 °C
T2 construct: purchased Sigma (St. Louis, MO, USA)
T2 sequence (P22303 32-614, species assumed): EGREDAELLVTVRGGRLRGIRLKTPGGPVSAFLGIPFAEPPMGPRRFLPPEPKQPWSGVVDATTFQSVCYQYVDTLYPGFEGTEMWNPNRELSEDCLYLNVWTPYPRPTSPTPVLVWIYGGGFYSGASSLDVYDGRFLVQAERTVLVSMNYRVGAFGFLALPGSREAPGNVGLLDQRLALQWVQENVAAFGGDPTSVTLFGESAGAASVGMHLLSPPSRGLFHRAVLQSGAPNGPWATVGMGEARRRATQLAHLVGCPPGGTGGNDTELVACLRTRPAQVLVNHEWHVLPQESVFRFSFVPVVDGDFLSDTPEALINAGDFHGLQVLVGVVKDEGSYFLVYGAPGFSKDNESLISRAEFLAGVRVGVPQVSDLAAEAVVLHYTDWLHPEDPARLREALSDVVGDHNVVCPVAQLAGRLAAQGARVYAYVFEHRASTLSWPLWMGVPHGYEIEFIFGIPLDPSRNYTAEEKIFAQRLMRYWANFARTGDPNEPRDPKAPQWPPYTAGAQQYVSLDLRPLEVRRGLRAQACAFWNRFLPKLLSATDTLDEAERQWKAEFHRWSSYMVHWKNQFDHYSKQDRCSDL
Method: as §1

[4] = Ferric-reducing antioxidant power assay (FRAP); conditions: absorbance at 593 nm after 5 min
Method: The FRAP test was performed as described previously. A standard curve of the antioxidant Trolox was plotted, then the measurement was performed with 290 µL of extract and its absorbance was measured at 593 nm after 5 min. The results were expressed in mg of Trolox equivalent per g of dry lichen. The experiments were performed in triplicate and the values are expressed as the mean ± SD.

tyrosinase = conditions: cited from earlier work
AChE = conditions: cited from earlier work
BChE = conditions: cited from earlier work
[5] = Ellman method, 37 °C, read-out: BChE IC50 (converted)
[6] = Ellman method, read-out: AChE IC50 (converted)

Cc1cc(O)c(C=O)c(O)c1 [Atranol, atranol]
DPPH antiradical activity (IC50) (DPPH scavenging activity): 21.04 ± 0.02 µg/mL | ORAC [1]: 176.28 ± 0.84 μmol Trolox/g lichen | IC50 [2, 5]: 239 µM | IC50 [3, 6]: 189 µM | FRAP [4]: 29.32 ± 0.0 ^a μmol Trolox/g lichen

Cc1cc(OC(=O)c2c(C)cc(O)cc2O)cc(O)c1C(=O)O [lecanoric acid]
inhibition of tyrosinase activity (tyrosinase): 82.69%

Cc1cc(O)cc(O)c1C(=O)O [orsellinic acid, 2,4-dihydroxy-6-methylbenzoic acid]
inhibition of tyrosinase activity (tyrosinase): 63.35%

C[C@@H]1O[C@@H](O[C@@H]2C(=O)c3c(O)cc(O)cc3O[C@@H]2c2ccc(O)c(O)c2)[C@H](O)[C@H](O)[C@H]1O [isoastilbin]
AChE inhibition (AChE; at 2.2 µM): 51.70% | BChE inhibition (BChE; at 2.2 µM): 50.10%

Cc1cc(O)c(C=O)c(O)c1C(=O)OCc1cc(O)c(C=O)c(O)c1C(=O)O [Barbatolic acid, barbatolic acid]
DPPH antiradical activity (IC50) (DPPH scavenging activity): 62.55 ± 0.01 µg/mL | ORAC [1]: 101.11 ± 0.71 μmol Trolox/g lichen | IC50 [2, 5]: 61.4 µM | IC50 [3, 6]: 44.6 µM | FRAP [4]: 28.10 ± 0.0 ^a μmol Trolox/g lichen

O=C(O)c1cc(O)c(O)c(O)c1 [Gallic acid, reference compound]
DPPH antiradical activity (IC50) (DPPH scavenging activity): 2.24 ± 0.04 µg/mL | FRAP [4]: 45.5 ± 0.00 μmol Trolox/g lichen

CC(=O)C1=C(O)C=C2Oc3c(C(C)=O)c(O)c(C)c(O)c3[C@@]2(C)C1=O [(+) usnic acid]
tyrosinase inhibition (tyrosinase; at the dose of 250 μg/mL): 9.1%

Cc1c(O)cc2c(c1O)C(=O)OC2 [5,7-dihydroxy-6-methylphthalide]
DPPH antiradical activity (IC50) (DPPH scavenging activity): 12.52 ± 0.02 µg/mL | ORAC [1]: 373.65 ± 1.05 μmol Trolox/g lichen | IC50 [2, 5]: 108 µM | IC50 [3, 6]: 70.5 µM | FRAP [4]: 36.91 ± 0.0 μmol Trolox/g lichen

CC(=O)c1c(O)c(C)c(O)c2c1OC1=CC(=O)C(C(C)=O)C(=O)C12C (stereo not drawn) [Usnic acid]
DPPH antiradical activity (IC50) (DPPH scavenging activity): 55.25 ± 0.04 µg/mL | ORAC [1]: 122.73 ± 1.0 μmol Trolox/g lichen | IC50 [2]: 12.7 µM | IC50 ([3]; AChE IC50, Ellman method): 6.42 µM | IC50 (AChE; reported previously): 0.00127 µM | FRAP [4]: 22.4 ± 0.00 μmol Trolox/g lichen | IC50 (BChE; reported previously): 0.0034 µM

Cc1cc(O)c(C=O)c2c1C(=O)Oc1c(COC(=O)/C=C/C(=O)O)c(O)c(C(=O)O)c(C)c1O2 [fumarprotocetraric acid]
inhibition of tyrosinase activity (tyrosinase; at 0.6 mM): 39.8%
